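Each compound was tested at five concentrations against cells in 96-well plates for 48 hours. TGI is the concentration that stops growth completely.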
Legend:
Test in all cases: NCI tumour cell line growth inhibition, 48 h
[1] = test system: SN12C renal
[2] = test system: HOP-62 NSCLC
[3] = test system: A549 NSCLC
[4] = test system: MALME-3M melanoma
[5] = test system: M14 melanoma
[6] = test system: T-47D breast
[7] = test system: KM12 colon
[8] = test system: UACC-62 melanoma
[9] = test system: CCRF-CEM leukemia
[10] = test system: SK-MEL-2 melanoma
[11] = test system: HCC-2998 colon
[12] = test system: NCI-H460 lung
[13] = test system: IGROV1 ovarian
[14] = test system: HOP-92 NSCLC
[15] = test system: RPMI-8226 leukemia
[16] = test system: SF-539 CNS
[17] = test system: NCI/ADR-RES ovarian
[18] = test system: HCT-15 colon
[19] = test system: PC-3 prostate
[20] = test system: MDA-N
[21] = test system: HCT-116 colon
[22] = test system: COLO 205 colon
[23] = test system: NCI-H522 lung
[24] = test system: NCI-H226 lung
[25] = test system: MCF7 breast
[26] = test system: SK-MEL-5 melanoma
[27] = test system: OVCAR-3 ovarian
[28] = test system: BT-549 breast
[29] = test system: MDA-MB-435
[30] = test system: SW-620 colon
[31] = test system: ACHN renal
[32] = test system: EKVX NSCLC
[33] = test system: K-562 leukemia
[34] = test system: HL-60(TB) leukemia
[35] = test system: 786-0 renal
[36] = test system: OVCAR-5 ovarian
[37] = test system: MDA-MB-231 breast
[38] = test system: SF-295 CNS
[39] = test system: DU-145 prostate
[40] = test system: HS 578T breast
[41] = test system: UO-31 renal
[42] = test system: SR leukemia
[43] = test system: SF-268 CNS
[44] = test system: HT29 colon
[45] = test system: SK-OV-3 ovarian
[46] = test system: UACC-257 melanoma
[47] = test system: SNB-19 CNS
[48] = test system: MOLT-4 leukemia
[49] = test system: U251 CNS
[50] = test system: A498 renal
[51] = test system: NCI-H23 lung
[52] = test system: SK-MEL-28 melanoma
[53] = test system: SNB-75 CNS
[54] = test system: CAKI-1 renal
[55] = test system: LOX IMVI melanoma
[56] = test system: OVCAR-8 ovarian
[57] = test system: TK-10 renal
[58] = test system: RXF 393 renal
[59] = test system: OVCAR-4 ovarian
[60] = test system: DLD-1 colon
[61] = test system: KM20L2 colon
[62] = test system: LXFL 529 NSCLC
[63] = test system: M19-MEL melanoma
[64] = test system: SNB-78 CNS
[65] = test system: XF 498 CNS

Measured: TGI

CNC1C(O)C(OC2C(N)CC(N)C(OC3OC(CN)=CCC3N)C2O)OCC1(C)O (centres undefined)
not listed: [57] | [58] | [59] | [60] | [61] | [62] | [63] | [64] | [65]
> 100 µM: all other assays above

Cc1cc(S(=O)(=O)NC(=C(C#N)C#N)[n+]2ccc(N(C)C)cc2)c([S-])cc1Cl
not listed: [30] | [53] | [55] | [60] | [61] | [62] | [63] | [64] | [65]
> 100 µM: all other assays above

C1CCC(OCc2nnn3c2CCC3)OC1 (centres undefined)
not listed: [6] | [15] | [17] | [19] | [20] | [22] | [24] | [25] | [28] | [29] | [35] | [37] | [39] | [40] | [43] | [47] | [50] | [54]
> 100 µM: all other assays above
